Data on 25 molecules can be found in patent US7102009B2, “Substituted amine derivatives and methods of use” (Amgen Inc., priority 2001, dated 2006).

pIC50: −log10 of the molar value.

This assay concerns Human Umbilical Vein Endothelial cells (VEGF-stimulated HUVEC proliferation). Description: HUVEC Proliferation Assay (VEGF-stimulated). It is filed as cell-based. The conditions noted are these: VEGF 50 ng/mL, 72 h incubation, CyQuant readout, read-out: inhibited VEGF-stimulated HUVEC proliferation at a level below (IC50). As to the method:
Human Umbilical Vein Endothelial cells are purchased from Clonetics, Inc., as cryopreserved cells harvested from a pool of donors. These cells, at passage 1, are thawed and expanded in EBM-2 complete medium, until passage 2 or 3. The cells are trypsinized, washed in DMEM+10% FBS+antibiotics, and spun at 1000 rpm for 10 min. Prior to centrifugation of the cells, a small amount is collected for a cell count. After centrifugation, the medium is discarded, and the cells are resuspended in the appropriate volume of DMEM+10% FBS+antibiotics to achieve a concentration of 3×10^5 cells/mL. Another cell count is performed to confirm the cell concentration. The cells are diluted to 3×10^4 cells/mL in DMEM+10% FBS+antibiotics, and 100 μL of cells are added to a 96-well plate. The cells are incubated at 37° C. for 22 h.
Prior to the completion of the incubation period, compound dilutions are prepared. Five-point, five-fold serial dilutions are prepared in DMSO, at concentrations 400-fold greater than the final concentrations desired. 2.5 μL of each compound dilution are diluted further in a total of 1 mL DMEM+10% FBS+antibiotics (400× dilution). Medium containing 0.25% DMSO is also prepared for the 0 μM compound sample. At the 22-hour timepoint, the medium is removed from the cells, and 100 μL of each compound dilution is added. The cells are incubated at 37° C. for 2-3 h.
During the compound pre-incubation period, the growth factors are diluted to the appropriate concentrations. Solutions of DMEM+10% FBS+antibiotics, containing either VEGF or bFGF at the following concentrations: 50, 10, 2, 0.4, 0.08, and 0 ng/mL are prepared. For the compound-treated cells, solutions of VEGF at 550 ng/mL or bFGF at 220 ng/mL for 50 ng/mL or 20 ng/mL final concentrations, respectively, are prepared since 10 μL of each will be added to the cells (110 μL final volume). At the appropriate time after adding the compounds, the growth factors are added. VEGF is added to one set of plates, while bFGF is added to another set of plates. For the growth factor control curves, the media on wells B4-G6 of plates 1 and 2 are replaced with media containing VEGF or bFGF at the varying concentrations (50-0 ng/mL). The cells are incubated at 37° C. for an additional 72 h.
At the completion of the 72 h incubation period, the medium is removed, and the cells are washed twice with PBS. After the second wash with PBS, the plates are tapped gently to remove excess PBS, and the cells are placed at −70° C. for at least 30 min. The cells are thawed and analyzed using the CyQuant fluorescent dye (Molecular Probes C-7026), following the manufacturer's recommendations. The plates are read on a Victor/Wallac 1420 workstation at 485 nm/530 nm (excitation/emission). Raw data are collected and analyzed using a 4-parameter fit equation in XLFit. IC50 values are then determined.
With `CC(C)(C)c1ccc(NC(=O)c2cccnc2Nc2ccc3cn[nH]c3c2)cc1/C=C/CCN1CCCC1` [Example 55, N-[3-((1E)-4-Pyrrolidinylbut-1-enyl)-4-(tert-butyl)phenyl][2-(1H-indazol-6-ylamino)(3-pyridyl)]carboxamide], the pIC50 was over 7.30.

Consider `CC(C)(C)c1ccc(NC(=O)c2cccnc2Nc2ccc3cn[nH]c3c2)cc1CCCN1CCCC1` [Example 56, N-[4-(tert-Butyl)-3-(3-pyrrolidinylpropyl)phenyl][2-(1H-indazol-6-ylamino)(3-pyridyl)]carboxamide], for which the pIC50 was over 7.30.

On to `CC(C)(C)c1ccc(NC(=O)c2cccnc2Nc2ccc3cn[nH]c3c2)cc1CCCN1CCOCC1` [Example 57, N-[4-(tert-Butyl)-3-(3-morpholin-4-ylpropyl)phenyl][2-(1H-indazol-6-ylamino)(3-pyridyl)]carboxamide], for which the pIC50 was over 7.30.

As for `CN1CCN(CCCc2ccc(NC(=O)c3cccnc3Nc3ccc4cn[nH]c4c3)cc2)CC1` [Example 61, [2-(1H-Indazol-6-ylamino)(3-pyridyl)]-N-{4-[3-(4-methylpiperazinyl)propyl]phenyl}carboxamide], the pIC50 is over 7.30.

As for `O=C(Nc1ccc2ccn(CCN3CCOCC3)c2c1)c1cccnc1Nc1ccc2cn[nH]c2c1` [Example 62, [2-(1H-Indazol-6-ylamino)(3-pyridyl)]-N-[1-(2-morpholin-4-ylethyl)indol-6-yl]carboxamide], the pIC50 was over 7.30.

`CC(C)(CCN1CCOCC1)c1ccc(NC(=O)c2cccnc2Nc2ccc3cn[nH]c3c2)cc1` [Example 63, N-[4-(1,1-Dimethyl-3-morpholin-4-ylpropyl)phenyl][2-(1H-indazol-6-ylamino)(3-pyridyl)]carboxamide]: the pIC50 is over 7.30.

With `COCCOCCOC(c1ccc(NC(=O)c2cccnc2Nc2ccc3cn[nH]c3c2)cc1)(C(F)(F)F)C(F)(F)F` [Example 64], the pIC50 is over 7.30.

For `O=C(Nc1ccc(C(OCCN2CCCCC2)(C(F)(F)F)C(F)(F)F)cc1)c1cccnc1Nc1ccc2cn[nH]c2c1` [Example 65, [2-(1H-Indazol-6-ylamino)(3-pyridyl)]-N-{4-[2,2,2-trifluoro-1-(2-piperidylethoxy)-1-(trifluoromethyl)ethyl]phenyl}carboxamide], the pIC50 is over 7.30.

In the case of `CC(C)(C)c1ccc(NC(=O)c2ccc(F)nc2Nc2ccc3cn[nH]c3c2)cc1` [Example 66, N-[4-(tert-Butyl)phenyl][6-fluoro-2-(1H-indazol-6-ylamino)(3-pyridyl)]carboxamide], the pIC50 was over 7.30.

On to `CC(C)c1ccc(NC(=O)c2ccc(F)nc2Nc2ccc3cn[nH]c3c2)cc1` [Example 67, [6-Fluoro-2-(1H-indazol-6-ylamino)(3-pyridyl)]-N-[4-(methylethyl)phenyl]carboxamide], for which the pIC50 is over 7.30.

Take `O=C(Nc1cccc(C(F)(F)F)c1)c1ccc(F)nc1Nc1ccc2cn[nH]c2c1` [Example 68, [6-Fluoro-2-(1H-indazol-6-ylamino)(3-pyridyl)]-N-[3-(trifluoromethyl)phenyl]carboxamide]: the pIC50 is over 7.30.

In the case of `O=C(Nc1cc(CCCN2CCOCC2)cc(C(F)(F)F)c1)c1cccnc1Nc1ccc2cn[nH]c2c1` [Example 70, 2-(1H-Indazol-6-ylamino)-N-[3-(3-morpholin-4-yl-propyl)-5-trifluoromethyl-phenyl]-nicotinamide], the pIC50 was over 7.30.

On to `O=C(Nc1cc(CCCN2CCCCC2)cc(C(F)(F)F)c1)c1cccnc1Nc1ccc2cn[nH]c2c1` [Example 71, 2-(1H-Indazol-6-ylamino)-N-[3-(3-piperidin-1-yl-propyl)-5-trifluoromethyl-phenyl]-nicotinamide], for which the pIC50 is over 7.30.

With `CN1CCC(Cc2cc(NC(=O)c3cccnc3Nc3ccc4cn[nH]c4c3)cc(C(F)(F)F)c2)CC1` [Example 72, 2-(1H-Indazol-6-ylamino)-N-[3-(1-methyl-piperidin-4-ylmethyl)-5-trifluoromethyl-phenyl]-nicotinamide], the pIC50 is over 7.30.

With `O=C(Nc1cc(OC2CCNCC2)cc(C(F)(F)F)c1)c1cccnc1Nc1ccc2cn[nH]c2c1` [Example 74, 2-(1H-Indazol-6-ylamino)-N-[3-(piperidin-4-yloxy)-5-trifluoromethyl-phenyl]-nicotinamide], the pIC50 is over 7.30.

Consider `O=C(Nc1cc(OCC2CCNCC2)cc(C(F)(F)F)c1)c1cccnc1Nc1ccc2cn[nH]c2c1` [Example 75, 2-(1H-Indazol-6-ylamino)-N-[3-(piperidin-4-ylmethoxy)-5-trifluoromethyl-phenyl]-nicotinamide], for which the pIC50 was over 7.30.

With `CC1(C)NS(=O)(=O)c2cc(NC(=O)c3cccnc3Nc3ccc4cn[nH]c4c3)ccc21` [Example 76, N-(3,3-Dimethyl-1,1-dioxo-2,3-dihydro-1H-116-benzo[d]isothiazol-6-yl)-2-(1H-indazol-6-ylamino)-nicotinamide], the pIC50 is over 7.30.

As for `CC1(C)CCC(C)(C)c2cc(NC(=O)c3cccnc3Nc3ccc4cn[nH]c4c3)ccc21` [Example 77, 2-(1H-Indazol-6-ylamino)-N-(5,5,8,8-tetramethyl-5,6,7,8-tetrahydro-naphthalen-2-yl)-nicotinamide], the pIC50 was over 7.30.

Regarding `CN1CCC(COc2cc(NC(=O)c3cccnc3Nc3ccc4cn[nH]c4c3)ccc2C(F)(F)C(F)(F)F)CC1` [Example 78, 2-(1H-Indazol-6-ylamino)-N-[3-(1-methyl-piperidin-4-ylmethoxy)-4-pentafluoroethyl-phenyl]-nicotinamide], the pIC50 was over 7.30.

Turning to `CC(C)N1CCC(COc2cc(NC(=O)c3cccnc3Nc3ccc4cn[nH]c4c3)ccc2C(F)(F)C(F)(F)F)CC1` [Example 79, 2-(1H-Indazol-6-ylamino)-N-[3-(1-isopropyl-piperidin-4-ylmethoxy)-4-pentafluoroethyl-phenyl]-nicotinamide], the pIC50 was over 7.30.

Regarding `O=C(Nc1ccc(C(F)(F)C(F)(F)F)c(OC[C@H](O)CN2CCCC2)c1)c1cccnc1Nc1ccc2cn[nH]c2c1` [Example 80, N-[3-(2-Hydroxy-3-pyrrolidin-1-yl-propoxy)-4-pentafluoroethyl-phenyl]-2-(1H-indazol-6-ylamino)-nicotinamide], the pIC50 is over 7.30.

Regarding `O=C(Nc1ccc(C(F)(F)C(F)(F)F)c(OCCN2CCCCC2)c1)c1cccnc1Nc1ccc2cn[nH]c2c1` [Example 81, 2-(1H-Indazol-6-ylamino)-N-[4-pentafluoroethyl-3-(2-piperidin-1-yl-ethoxy)-phenyl]-nicotinamide], the pIC50 was over 7.30.

As to `O=C(Nc1ccc(C(F)(F)C(F)(F)F)c(OC[C@@H](O)CN2CCCC2)c1)c1cccnc1Nc1ccc2cn[nH]c2c1` [Example 82, N-[3-(2-Hydroxy-3-pyrrolidin-1-yl-propoxy)-4-pentafluoroethyl-phenyl]-2-(1H-indazol-6-ylamino)-nicotinamide], the pIC50 was over 7.30.

For `O=C(Nc1ccc(C(F)(F)C(F)(F)F)c(OC[C@@H]2CCCN2)c1)c1cccnc1Nc1ccc2cn[nH]c2c1` [Example 83, 2-(1H-Indazol-6-ylamino)-N-[4-pentafluoroethyl-3-(2S-pyrrolidin-2-ylmethoxy)-phenyl]-nicotinamide], the pIC50 was over 7.30.

As to `O=C(Nc1ccc(C(F)(F)C(F)(F)F)c(OC[C@H]2CCCN2)c1)c1cccnc1Nc1ccc2cn[nH]c2c1` [Example 84, 2-(1H-Indazol-6-ylamino)-N-[4-pentafluoroethyl-3-(2R-pyrrolidin-2-ylmethoxy)-phenyl]-nicotinamide], the pIC50 is over 7.30.
